Patent publication US9776997B2, “3-aryl-substituted imidazo[1,2-A]pyridines and their use” (Bayer Pharma Aktiengesellschaft, priority 2013, dated 2017)
Counter-ions that a name gives are not always drawn.

Molecular target: T1, recombinant guanylate cyclase reporter cell line (Rattus norvegicus, UniProt P19686+P20595)
T1 construct: expressed in transfected cells; host or cells: recombinant reporter cell line
T1 sequence (P19686 1-690): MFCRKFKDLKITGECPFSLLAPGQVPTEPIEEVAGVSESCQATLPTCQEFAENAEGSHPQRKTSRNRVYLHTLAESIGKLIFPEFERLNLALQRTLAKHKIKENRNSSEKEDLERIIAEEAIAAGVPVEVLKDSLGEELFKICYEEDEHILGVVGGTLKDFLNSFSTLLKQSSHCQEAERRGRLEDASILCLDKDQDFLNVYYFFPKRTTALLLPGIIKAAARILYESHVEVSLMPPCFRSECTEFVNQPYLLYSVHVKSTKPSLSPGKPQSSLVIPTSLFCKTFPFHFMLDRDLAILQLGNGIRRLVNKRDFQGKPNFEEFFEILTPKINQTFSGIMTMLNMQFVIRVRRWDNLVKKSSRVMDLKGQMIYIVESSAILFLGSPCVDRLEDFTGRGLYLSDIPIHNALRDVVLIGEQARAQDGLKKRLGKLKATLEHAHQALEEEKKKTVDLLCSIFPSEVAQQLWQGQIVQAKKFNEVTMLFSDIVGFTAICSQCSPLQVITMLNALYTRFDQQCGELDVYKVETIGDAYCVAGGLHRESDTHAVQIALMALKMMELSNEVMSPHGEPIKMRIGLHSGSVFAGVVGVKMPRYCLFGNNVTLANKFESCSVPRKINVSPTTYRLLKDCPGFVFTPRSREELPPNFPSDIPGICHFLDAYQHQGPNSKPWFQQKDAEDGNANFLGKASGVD
T1 sequence (P20595 1-619): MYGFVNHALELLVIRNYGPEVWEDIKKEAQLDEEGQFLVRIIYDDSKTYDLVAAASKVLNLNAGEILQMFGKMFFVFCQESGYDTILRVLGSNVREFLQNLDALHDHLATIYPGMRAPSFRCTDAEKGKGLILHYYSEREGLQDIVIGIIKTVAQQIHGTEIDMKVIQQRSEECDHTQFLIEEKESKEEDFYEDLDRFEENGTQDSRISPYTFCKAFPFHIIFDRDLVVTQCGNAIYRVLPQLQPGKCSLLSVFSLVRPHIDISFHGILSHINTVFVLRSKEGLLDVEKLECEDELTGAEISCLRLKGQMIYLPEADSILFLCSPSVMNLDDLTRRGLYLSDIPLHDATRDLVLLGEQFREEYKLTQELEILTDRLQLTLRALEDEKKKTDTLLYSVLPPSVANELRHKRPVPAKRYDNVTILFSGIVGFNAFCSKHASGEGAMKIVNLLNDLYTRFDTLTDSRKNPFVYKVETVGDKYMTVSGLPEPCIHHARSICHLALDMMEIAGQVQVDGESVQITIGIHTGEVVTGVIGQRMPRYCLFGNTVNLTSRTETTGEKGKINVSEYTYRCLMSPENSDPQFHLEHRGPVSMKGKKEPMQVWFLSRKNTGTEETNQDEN
Test: Effect on a recombinant guanylate cyclase reporter cell line
Assay type: cell-based
Details: MEC = minimum effective concentration; in some cases mean values for individual determinations
Protocol: B-2. Effect on a Recombinant Guanylate Cyclase Reporter Cell Line
The cellular effect of the inventive compounds is determined using a recombinant guanylate cyclase reporter cell line, as described in F. Wunder et al., Anal. Biochem. 339, 104-112 (2005).
Representative MEC values (MEC=minimum effective concentration) for the inventive compounds are shown in the table below (in some cases as mean values for individual determinations): […]

Compound	MEC
Cc1nc2c(OCc3c(F)cccc3F)cccn2c1-c1ccc(Oc2ccccc2)cc1 [Example 31, 8-[(2,6-difluorobenzyl)oxy]-2-methyl-3-(4-phenoxyphenyl)imidazo[1,2-a]pyridine]	3.0 µM
Cc1nc2c(OCc3c(F)cccc3F)cccn2c1-c1ccc2c(c1)OCCO2 [Example 37, 8-[(2,6-difluorobenzyl)oxy]-3-(2,3-dihydro-1,4-benzodioxin-6-yl)-2-methylimidazo[1,2-a]pyridine]	3.0 µM
Cc1nc2c(OCc3c(F)cccc3F)cccn2c1-c1cccc(N2CCCCC2)c1 [Example 38, 8-[(2,6-difluorobenzyl)oxy]-2-methyl-3-[3-(piperidin-1-yl)phenyl]imidazo[1,2-a]pyridine]	3.0 µM
Cc1nc2c(OCc3c(F)cccc3F)cccn2c1-c1ccc(CN2CCOCC2)c(F)c1 [Example 39, 8-[(2,6-difluorobenzyl)oxy]-3-[3-fluoro-4-(morpholin-4-ylmethyl)phenyl]-2-methylimidazo[1,2-a]pyridine]	3.0 µM
COc1ccc(-c2c(C)nc3c(OCc4c(F)cccc4F)cccn23)cc1CN1CCOCC1 [Example 41, 8-[(2,6-difluorobenzyl)oxy]-3-[4-methoxy-3-(morpholin-4-ylmethyl)phenyl]-2-methylimidazo[1,2-a]pyridine]	3.0 µM
Cc1nc2c(OCc3c(F)cccc3F)cccn2c1-c1cccc(CN2CCCCC2)c1 [Example 42, 8-[(2,6-difluorobenzyl)oxy]-2-methyl-3-[3-(piperidin-1-ylmethyl)phenyl]imidazo[1,2-a]pyridine]	3.0 µM
CCN(CC)Cc1ccc(-c2c(C)nc3c(OCc4c(F)cccc4F)cccn23)cc1F [Example 43, N-(4-{8-[(2,6-difluorobenzyl)oxy]-2-methylimidazo[1,2-a]pyridin-3-yl}-2-fluorobenzyl)-N-ethylethanamine]	3.0 µM
Cc1nc2c(OCc3c(F)cccc3F)cccn2c1-c1ccc(F)c(CN2CCOCC2)c1 [Example 44, 8-[(2,6-difluorobenzyl)oxy]-3-[4-fluoro-3-(morpholin-4-ylmethyl)phenyl]-2-methylimidazo[1,2-a]pyridine]	3.0 µM
Cc1nc2c(OCc3c(F)cccc3F)cccn2c1-c1cccc(NS(C)(=O)=O)c1 [Example 48]	0.2 µM
Cc1nc2c(OCc3c(F)cccc3F)cccn2c1-c1ccnc(-c2ccc(F)cc2)c1 [Example 59, 8-[(2,6-Difluorobenzyl)oxy]-3-[2-(4-fluorophenyl)pyridin-4-yl]-2-methylimidazo[1,2-a]pyridine]	1.0 µM
CCCCc1coc(-c2c(C)nc3c(OCc4c(F)cccc4F)cc(Cl)cn23)n1 [Example 61, 3-(4-Butyl-1,3-oxazol-2-yl)-6-chloro-8-[(2,6-difluorobenzyl)oxy]-2-methylimidazo[1,2-a]pyridine trifluoroacetate]	3.0 µM
Cc1nc2c(OCC3CCCCC3)cccn2c1-c1nnc(-c2ncccn2)o1 [Example 62, 8-(Cyclohexylmethoxy)-2-methyl-3-[5-(pyrimidin-2-yl)-1,3,4-oxadiazol-2-yl]imidazo[1,2-a]pyridine]	3.0 µM
Cc1nc2c(OCC3CCCCC3)cccn2c1-c1nnc(-c2cccnc2)o1 [Example 64]	3.0 µM
Cc1nc2c(OCC3CCCCC3)cccn2c1-c1nnc(C(C)O)o1 (stereo not drawn) [Example 65]	3.0 µM
CCOCc1nnc(-c2c(C)nc3c(OCC4CCCCC4)cccn23)o1 [Example 66]	3.0 µM
COCc1nnc(-c2c(C)nc3c(OCC4CCCCC4)cccn23)o1 [Example 67]	3.0 µM
COCCc1nnc(-c2c(C)nc3c(OCC4CCCCC4)cccn23)o1 [Example 68]	3.0 µM
Cc1nc(-c2nnc(-c3c(C)nc4c(OCC5CCCCC5)cccn34)o2)cs1 [Example 69]	3.0 µM
CCC(C)c1nnc(-c2c(C)nc3c(OCC4CCCCC4)cccn23)o1 (stereo not drawn) [Example 70]	3.0 µM
Cc1nc2c(OCC3CCCCC3)cccn2c1-c1nnc(CN2CCCC2=O)o1 [Example 71]	3.0 µM
Cc1nc(C)n(Cc2nnc(-c3c(C)nc4c(OCC5CCCCC5)cccn34)o2)n1 [Example 72]	3.0 µM
Cc1nc2c(OCC3CCCCC3)cccn2c1-c1nnc(C2CCS(=O)(=O)C2)o1 (stereo not drawn) [Example 73]	3.0 µM

More lines, now with the values ahead:

MEC	Compound
3.0 µM	C=Cc1ccc(-c2c(C)nc3c(OCc4c(F)cccc4F)cccn23)cc1 [Example 32, 8-[(2,6-difluorobenzyl)oxy]-2-methyl-3-(4-vinylphenyl)imidazo[1,2-a]pyridine]
3.0 µM	CSc1cccc(-c2c(C)nc3c(OCc4c(F)cccc4F)cccn23)c1 [Example 33, 8-[(2,6-difluorobenzyl)oxy]-2-methyl-3-[3-(methylsulphanyl)phenyl]imidazo[1,2-a]pyridine]
3.0 µM	Cc1nc2c(OCc3c(F)cccc3F)cccn2c1-c1cccc(Cl)c1 [Example 34, 3-(3-chlorophenyl)-8-[(2,6-difluorobenzyl)oxy]-2-methylimidazo[1,2-a]pyridine]
3.0 µM	Cc1nc2c(OCc3c(F)cccc3F)cccn2c1-c1csc2ccccc12 [Example 35, 3-(1-benzothiophen-3-yl)-8-[(2,6-difluorobenzyl)oxy]-2-methylimidazo[1,2-a]pyridine]
3.0 µM	Cc1nc2c(OCc3c(F)cccc3F)cccn2c1-c1ccc2c(ccn2C)c1 [Example 36, 8-[(2,6-difluorobenzyl)oxy]-2-methyl-3-(1-methyl-1H-indol-5-yl)imidazo[1,2-a]pyridine]
3.0 µM	Cc1nc2c(OCc3c(F)cccc3F)cccn2c1-c1ccc(C(N)=O)cc1 [Example 40, 4-{8-[(2,6-difluorobenzyl)oxy]-2-methylimidazo[1,2-a]pyridin-3-yl}benzamide]
0.1 µM	Cc1nc2c(OCc3c(F)cccc3F)cccn2c1-c1cn[nH]c1 [Example 45, 8-[(2,6-difluorobenzyl)oxy]-2-methyl-3-(1H-pyrazol-4-yl)imidazo[1,2-a]pyridine]
0.2 µM	Cc1nc2c(OCc3c(F)cccc3F)cccn2c1-c1cccc(S(C)(=O)=O)c1 [Example 46]
0.3 µM	Cc1nc2c(OCc3c(F)cccc3F)cccn2c1-c1ccn[nH]1 [Example 47]
0.3 µM	CCn1cc(-c2c(C)nc3c(OCc4c(F)cccc4F)cccn23)cn1 [Example 49]
0.3 µM	Cc1nc2c(OCc3c(F)cccc3F)cccn2c1-c1cnn(C)c1 [Example 50]
0.3 µM	Cc1nc2c(OCc3c(F)cccc3F)cccn2c1-c1ccc2cn[nH]c2c1 [Example 51]
0.3 µM	Cc1nc2c(OCc3c(F)cccc3F)cccn2c1-c1cnn(C(C)C)c1 [Example 52]
1.0 µM	Cc1nc2c(OCc3c(F)cccc3F)cccn2c1-c1cccc2[nH]ncc12 [Example 53]
1.0 µM	Cc1nc2c(OCc3c(F)cccc3F)cccn2c1-c1ccc2[nH]ncc2c1 [Example 54]
1.0 µM	Cc1nn(C)cc1-c1c(C)nc2c(OCc3c(F)cccc3F)cccn12 [Example 55]
3.0 µM	Cc1nc2c(OCc3c(F)cccc3F)cccn2c1-c1cnn(C)c1C [Example 56]
1.0 µM	CCNc1nnc(-c2c(C)nc3c(OCc4c(F)cccc4F)cccn23)o1 [Example 57, 5-{8-[(2,6-Difluorobenzyl)oxy]-2-methylimidazo[1,2-a]pyridin-3-yl}-N-ethyl-1,3,4-oxadiazole-2-amine]
3.0 µM	Cc1nc2c(OCc3c(F)cccc3F)cccn2c1-c1nnc(N)o1 [Example 58, 5-{8-[(2,6-Difluorobenzyl)oxy]-2-methylimidazo[1,2-a]pyridin-3-yl}-1,3,4-oxadiazole-2-amine]
3.0 µM	Cc1nc2c(OCc3c(F)cccc3F)cccn2c1-c1cnccn1 [Example 60, 8-[(2,6-Difluorobenzyl)oxy]-2-methyl-3-(pyrazin-2-yl)imidazo[1,2-a]pyridine]
